Here are results for 74 sequences from the OligoGym collection.

The target in series [1] is SOD1. Particulars: ASO.
Series [2] concerns the target MALAT1. Conditions: ASO, A431, 0.005 µM.

Values joined by “and” are separate entries in the source; they are usually repeats but may differ in a detail not shown here. Equal values may be shown once. After the bases stand the sugars from the 5' end (letter, count) and the backbone: PS all phosphorothioate, else s phosphorothioate and o phosphodiester by linkage. Methylation of C is not given here. e = 2'-O-(2-methoxyethyl) (MOE); k = constrained ethyl (cEt); d = 2'-deoxy (DNA)

For “GATCATAAATCAGTTTC (sugars e2 k2 d8 k2 e3, PS)”, in series [1] (HepG2, 5 µM), the target mRNA inhibition was determined as 34%.
On to “CCACACCTTCACTGGTC (sugars e3 k2 d7 k2 e3, PS)”, for which the target mRNA inhibition in series [1] (HepG2, 3 µM) came out at 36%.
Same read-out and setting: the value for “CTTTTTCATGGACCACC (sugars e3 k2 d7 k2 e3, PS)” was 87%.
“ACAGTGTTTAATGTTTA (sugars e2 k2 d9 k2 e2, PS)”: the target mRNA inhibition in series [1] (HepG2, 0.1875 µM) was 40%; in series [1] (HepG2, 0.75 µM), 67%; in series [1] (HepG2, 3 µM), 86%; in series [1] (HepG2, 4 µM), 79%; in series [1] (HepG2, 5 µM) it was 84%; in series [1] (HepG2, 12 µM) it was 83% and 88%.
In series [1] (HepG2, 4 µM), “GTTTATTGGGCGATCCC (sugars e2 k2 d8 k2 e3, PS)” displayed a target mRNA inhibition of 54%.
Turning to “TTAATGTTTATCAGGA (sugars ekddddddddekekee, linkages s1 o1 s8 o3 s2)”, the target mRNA inhibition came to 0% in series [1] (A431, 0.12 µM); 7% in series [1] (A431, 0.6 µM); 21% in series [1] (A431, 3 µM); 46% in series [1] (A431, 15 µM); 52% in series [1] (HepG2, 0.222 µM); 73% in series [1] (HepG2, 0.667 µM). The target mRNA inhibition in series [1] (HepG2, 2 µM) was found to be 84%; in series [1] (HepG2, 6 µM), 93%.
In series [1] (HepG2, 3 µM), “TGCCCAAGTCATCTGCT (sugars e3 k2 d7 k2 e3, PS)” yielded a target mRNA inhibition of 90%.
Consider “ACTACATCCAAGGGAAT (sugars e2 k2 d8 k2 e3, PS)”, for which, in series [1] (HepG2, 4 µM), the target mRNA inhibition is 42%.
On to “TTCTCACTACAGGTACT (sugars e2 k2 d9 k2 e2, PS)”, for which the target mRNA inhibition in series [1] (HepG2, 5 µM) amounted to 37%.
As to “TGTTTATTGGGCGATCC (sugars e2 k2 d8 k2 e3, PS)”, the target mRNA inhibition in series [1] (HepG2, 4 µM) came to 50%.
In series [1] (HepG2, 3 µM), “TACAGGTCATTGAAACA (sugars e3 k2 d7 k2 e3, PS)” came in with a target mRNA inhibition of 9%.
In the case of “ATTTCTACAGCTAGCAG (sugars e2 k2 d8 k2 e3, PS)”, the target mRNA inhibition in series [1] (HepG2, 4 µM) was found to be 66%.
In series [1] (HepG2, 5 µM), “CTGTGATTTAAGTCTGG (sugars e2 k2 d9 k2 e2, PS)” had a target mRNA inhibition of 61%.
“CATTGAAACAGACATTT (sugars e3 k2 d7 k2 e3, PS)” displayed a target mRNA inhibition in series [1] (HepG2, 3 µM) of 11%.
Take “GGATTCTTTTAATAGCC (sugars e2 k2 d9 k2 e2, PS)”: the target mRNA inhibition in series [1] (HepG2, 5 µM) was found to be 19%.
For the sequence “ACATGGAATCCATGCAG (sugars e3 k2 d7 k2 e3, PS)”, the target mRNA inhibition in series [1] (HepG2, 3 µM) worked out at 0%.
As to “TGAATTTGGATTCTTTTAAT (sugars e5 d10 e5, PS)”, the target mRNA inhibition in series [1] (HepG2, 5 µM) stood at 0%.
On to “ATTTCCACCTTTGCCCAAGT (sugars e5 d10 e5, PS)”, for which the target mRNA inhibition in series [1] (HepG2, 4 µM) was found to be 56%; in series [1] (HepG2, 12 µM) it was 84%.
In turn, “ATTGAAACAGACATTTT (sugars e3 k2 d7 k2 e3, PS)” yielded a target mRNA inhibition in series [1] (HepG2, 3 µM) of 22%.
With “CACTACAGGTACTTTAAAGC (sugars e5 d10 e5, PS)”, the target mRNA inhibition in series [1] (HepG2, 5 µM) turned out to be 18%.
“CAAGGGAATGTTTATTG (sugars e2 k2 d9 k2 e2, PS)” yielded a target mRNA inhibition in series [1] (HepG2, 4 µM) of 38%.
Consider “AAGGGAATGTTTATTGG (sugars e3 k2 d7 k2 e3, PS)”, for which the target mRNA inhibition in series [1] (HepG2, 3 µM) was determined as 2%.
For the sequence “GTGAGGACCTGCACTGGTAC (sugars e5 d10 e5, linkages s1 o3 s11 o3 s1)”, the target mRNA inhibition in series [1] (A431, 0.12 µM) was 0%; in series [1] (A431, 0.6 µM), 17%; in series [1] (A431, 3 µM), 0%; in series [1] (A431, 15 µM) it was 16%; in series [1] (HepG2, 0.222 µM), 0%; in series [1] (HepG2, 0.667 µM) it was 16%. The target mRNA inhibition in series [1] (HepG2, 2 µM) was 70%; in series [1] (HepG2, 3 µM) it was 50%; in series [1] (HepG2, 6 µM), 35%.
Turning to “GCGATCCCAATTACACC (sugars e2 k2 d9 k2 e2, PS)”, in series [1] (HepG2, 4 µM), the target mRNA inhibition was found to be 58%.
In series [1] (HepG2, 4 µM), “CCGTCGCCCTTCAGCAC (sugars e2 k2 d8 k2 e3, PS)” showed a target mRNA inhibition of 71%.
As for “CACATCGGCCACACCATCTT (sugars e5 d10 e5, PS)”, in series [1] (HepG2, 5 µM), the target mRNA inhibition was 27% and 13%.
“ATTGGGCGATCCCAATT (sugars e2 k2 d8 k2 e3, PS)”: in series [1] (HepG2, 4 µM), the target mRNA inhibition worked out at 2%.
The same measure, in the same setting: next, “GCCGTCGCCCTTCAGCA (sugars e2 k2 d8 k2 e3, PS)”: 64%.
As to “TTAAAGTGAGGACCTGC (sugars e3 k2 d7 k2 e3, PS)”, the target mRNA inhibition in series [1] (HepG2, 3 µM) is 14%.
Turning to “GTTTATTGGGCGATCCC (sugars e3 k2 d7 k2 e3, PS)”, the target mRNA inhibition in series [1] (HepG2, 3 µM) amounted to 18%.
As for “AATAGACACATCGGCCACAC (sugars e5 d10 e5, PS)”, the target mRNA inhibition in series [1] (HepG2, 5 µM) is 30% and 25%.
As to “ATTGGGCGATCCCAATT (sugars e2 k2 d9 k2 e2, PS)”, the target mRNA inhibition in series [1] (HepG2, 4 µM) was 23%.
“TAGAGGATTAAAGTGAG (sugars e3 k2 d7 k2 e3, PS)” yielded a target mRNA inhibition in series [1] (HepG2, 3 µM) of 21%.
As for “ACCATCTTTGTCAGCAGTCA (sugars e5 d10 e5, PS)”, the target mRNA inhibition in series [1] (HepG2, 5 µM) was 41% and 30%.
Turning to “TACCCATCTGTGATTTAAGT (sugars e5 d10 e5, PS)”, the target mRNA inhibition in series [1] (HepG2, 5 µM) is 50%.
As to “TACTTTCCTTCTGCTCG (sugars e3 k2 d7 k2 e3, PS)”, the target mRNA inhibition in series [1] (HepG2, 3 µM) came out at 14%.
Consider “CCCCACACCTTCACTG (sugars ekddddddddekekee, linkages s1 o1 s8 o3 s2)”, for which the target mRNA inhibition in series [1] (A431, 0.12 µM) came to 0%; in series [1] (A431, 0.6 µM), 0%; in series [1] (A431, 3 µM) it was 0%; in series [1] (A431, 15 µM), 0%; in series [1] (HepG2, 0.222 µM), 21%; in series [1] (HepG2, 0.667 µM), 36%. In addition, the target mRNA inhibition in series [1] (HepG2, 2 µM) stood at 60%; in series [1] (HepG2, 6 µM), 75%.
Sequence “AAGTTTAATACCCATCT (sugars e2 k2 d8 k2 e3, PS)” had a target mRNA inhibition in series [1] (HepG2, 5 µM) of 54%.
“TCCAAGTGATCATAAAT (sugars e2 k2 d9 k2 e2, PS)” yielded a target mRNA inhibition in series [1] (HepG2, 5 µM) of 39%.
In the case of “AAATACAGGTCATTGAA (sugars e3 k2 d7 k2 e3, PS)”, in series [1] (HepG2, 3 µM), the target mRNA inhibition stood at 2%.
Still for that read-out and setting: the value for “ATTTCCACCTTTGCCCA (sugars e3 k2 d7 k2 e3, PS)” was 63%.
Turning to “ACAGCTAGCAGGATAAC (sugars e2 k2 d8 k2 e3, PS)”, the target mRNA inhibition in series [1] (HepG2, 0.1875 µM) was found to be 11%; in series [1] (HepG2, 0.75 µM) it was 64%; in series [1] (HepG2, 3 µM), 87%; in series [1] (HepG2, 4 µM), 79%; in series [1] (HepG2, 12 µM) it was 95%.
In series [1] (HepG2, 5 µM), “GCTTGAATGACAAAGAA (sugars e2 k2 d9 k2 e2, PS)” displayed a target mRNA inhibition of 32%.
Sequence “CCAAGTCATCTGCTTTT (sugars e3 k2 d7 k2 e3, PS)” displayed a target mRNA inhibition in series [1] (HepG2, 3 µM) of 50%.
Turning to “GTCACACAATTACACTT (sugars e2 k2 d9 k2 e2, PS)”, the target mRNA inhibition in series [1] (HepG2, 5 µM) came to 35%.
For the sequence “TTAATACCCATCTGTGATTT (sugars e5 d10 e5, PS)”, in series [1] (HepG2, 5 µM), the target mRNA inhibition amounted to 11%.
Turning to “CGCCGAGGTCCTGGTTCCGA (sugars e5 d10 e5, PS)”, the target mRNA inhibition in series [1] (HepG2, 4 µM) was 24%.
Consider “TTAGTTTGAATTTGGATTCT (sugars e5 d10 e5, PS)”, for which the target mRNA inhibition in series [1] (HepG2, 5 µM) turned out to be 0%.
On the same count and under the same terms, next, “AATAAGTGCCATACAGG (sugars e2 k2 d8 k2 e3, PS)”: 40%.
In turn, “AAATCTTCCAAGTGATC (sugars e3 k2 d7 k2 e3, PS)” gave a target mRNA inhibition in series [1] (HepG2, 3 µM) of 4%.
For AATCGCACTGGCTCCT (sugars k3 d10 k3, PS), in series [2], the target mRNA inhibition is 25%.
On the same count and under the same terms, next, CTATAAGGACAGCTAA (sugars k3 d10 k3, PS): 4%; ATACTTCATTACCCCA (sugars k3 d10 k3, PS): 50%.
The sequence AGTCTCGGGCTGCAGG (sugars k3 d10 k3, PS) had a target mRNA inhibition in series [2] of 3%.
The same measure, in the same setting: the value for TCACCAAATCGCACTG (sugars k3 d10 k3, PS) was 20%; that for CTAATAGCAGCGGGAT (sugars k3 d10 k3, PS) was 22%; that for TCACCTTCGGTTTAAT (sugars k3 d10 k3, PS) was 28%.
The same measure, in the same setting: next, GGGCTTTACTTTCCAT (sugars k3 d10 k3, PS): 16%.
On the same count and under the same terms, the value for CTGTTAACAGCTGCCT (sugars k3 d10 k3, PS) was 52%.
In series [2], CACTCATATGCAATTC (sugars k3 d10 k3, PS) showed a target mRNA inhibition of 37%.
On the same count and under the same terms, the value for CTTACTGGGTCTGGCT (sugars k3 d10 k3, PS) was 41%.
Consider AGCTTCAATCACAAAT (sugars k3 d10 k3, PS), for which the target mRNA inhibition in series [2] is 23%.
The sequence CGTAAACACCCTCATC (sugars k3 d10 k3, PS) yielded a target mRNA inhibition in series [2] of 32%.
On the same count and under the same terms, next, TGCCAACTAATTGCCA (sugars k3 d10 k3, PS): 23%; ATAGTGTAAAACATTG (sugars k3 d10 k3, PS): 0%.
Same read-out and setting: next, GGATGTATATAGTTCA (sugars k3 d10 k3, PS): 30%; ACTCTGATCATAATCT (sugars k3 d10 k3, PS): 35%; GATGGACATTGCCTCT (sugars k3 d10 k3, PS): 37%.
For TGACTGAATATGAACC (sugars k3 d10 k3, PS), the target mRNA inhibition in series [2] was 41%.
Still for that read-out and setting: the value for CTTTTTAAAAGATCGC (sugars k3 d10 k3, PS) was 31%; that for CTCCCAATTAATCTTT (sugars k3 d10 k3, PS) was 27%; that for TAGAATCTTACTTGAT (sugars k3 d10 k3, PS) was 34%.
In turn, GGAGAACAACTCGCAT (sugars k3 d10 k3, PS) yielded a target mRNA inhibition in series [2] of 17%.
The same measure, in the same setting: the value for TCCAGTCTACAAGTTA (sugars k3 d10 k3, PS) was 31%.
